Experimental data reported in US20150290235A1, “USE OF SMALL MOLECULE INHIBITORS/ACTIVATORS IN COMBINATION WITH (DEOXY)NUCLEOSIDE OR (DEOXY)NUCLEOTIDE ANALOGS FOR TREATMENT OF CANCER AND HEMATOLOGICAL MALIGNANCIES OR VIRAL INFECTIONS” (AB SCIENCE, priority 2012, published 2015).
Several values for one entry are separate records, joined by “and”; a condition that tells them apart may be missing. Identical values can stand only once. Entries after “also recorded” stand apart in the source; their conditions may differ. Blank lines part the entries; values can stand above or below the compound they belong to.

How the values were obtained:
[1] = biological target: human deoxycytidine kinase (dCK) (Homo sapiens, UniProt P27707); assay: dCK activity with UTP as phosphate donor (PK/LDH enzymatic-coupled assay); conditions: nine dCK substrates
Chain of human deoxycytidine kinase (dCK) (P27707 whole entry): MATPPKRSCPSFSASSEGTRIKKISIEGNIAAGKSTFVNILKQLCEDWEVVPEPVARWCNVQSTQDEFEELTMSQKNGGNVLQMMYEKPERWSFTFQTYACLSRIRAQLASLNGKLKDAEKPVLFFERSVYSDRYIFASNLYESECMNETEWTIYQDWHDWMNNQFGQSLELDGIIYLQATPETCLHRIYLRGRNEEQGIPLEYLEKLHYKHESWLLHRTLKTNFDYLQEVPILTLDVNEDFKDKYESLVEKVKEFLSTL

[2] = tested on: Mia Paca-2 pancreatic cancer cells; assay: WST-1 proliferation assay, Mia Paca-2; format: cell-based, human; conditions: for response to gemcitabine after pre-incubation with TKI: Mia Paca-2, gemcitabine-resistant, 10 μM TKI
C2 mastocytoma cells = assay: Alamar Blue cell proliferation assay, C2; format: cell-based, canine
[3] = tested on: BxPC-3 pancreatic cancer cells; assay: WST-1 proliferation assay, BxPC-3; format: cell-based, human
Procedure: (§1) Cancer cell lines: Pancreatic cancer cells lines (Mia Paca-2, Panc-1, BxPC-3 and Capan-2) were obtained from Dr. Juan Iovanna (Inserm, France). Cells were maintained in RPMI (BxPC-3, Capan-2) or DMEM (Mia Paca-2, Panc-1) medium containing glutamax-1 (Lonza), supplemented with 100 U/ml penicillin/100 μg/ml streptomycin, and 10% fetal calf serum (FCS) (AbCys, Lot S02823S1800). Expression of tyrosine kinases was determined by RT-PCR using Hot Star Taq (Qiagen GmbH, Hilden, Germany) in a 2720 Thermal Cycler (Applied Biosystems).
(§2) Treatment was started with the addition of the respective drug. […] After 72 hours WST-1 reagent was added and incubated with the cells for 4 hours before absorbance measurement at 450 nm in an EL800 Universal Microplate Reader (Bio-Tek Instruments Inc.). Media alone was used as a blank and proliferation in the absence of compounds served as positive control. Results are representative of three/four experiments.

[4] = tested on: Abrams osteosarcoma cells; assay: Alamar Blue cell proliferation assay, Abrams; format: cell-based, canine
[5] = tested on: Ba/F3 cells expressing PDGFR-α; conditions: read-out: IC50, PDGF-BB-stimulated proliferation and PDGFR-α tyrosine phosphorylation; cited from earlier work
[6] = tested on: CMT12 breast carcinoma cells; assay: Alamar Blue cell proliferation assay, CMT12; format: cell-based, canine
[7] = tested on: Panc-1 pancreatic cancer cells; assay: WST-1 proliferation assay, Panc-1; format: cell-based, human; conditions: Panc-1
Procedure: as §1, §2

[8] = tested on: Ba/F3 cells expressing human or mouse wild-type c-Kit; conditions: read-out: IC50, blocking stem cell factor-induced proliferation and c-Kit tyrosine phosphorylation; cited from earlier work
[9] = tested on: canine cancer cell lines other than C2; assay: cells; conditions: Canis lupus familiaris, read-out: IC50 masitinib single agent
[10] = tested on: Mia Paca-2 pancreatic tumors; assay: Nog-SCID mouse model of human pancreatic cancer; format: in vivo, Nog-SCID mice; conditions: day 56, 28 days of treatment; control 1023
[11] = tested on: CMT27 breast carcinoma cells; assay: Alamar Blue cell proliferation assay, CMT27; format: cell-based, canine
[12] = tested on: Capan-2 pancreatic cancer cells; assay: WST-1 proliferation assay, Capan-2; format: cell-based, human
Procedure: as §1, §2

D17 osteosarcoma cells = assay: Alamar Blue cell proliferation assay, D17; format: cell-based, canine
[13] = Canis lupus familiaris, 72 h, read-out: IC50 masitinib monotherapy
[14] = Canis lupus familiaris, Breast carcinoma cell, 72 h, read-out: IC50 masitinib monotherapy

SMILES: COc1cc(Nc2c(C#N)cnc3cc(OCCCN4CCN(C)CC4)c(OC)cc23)c(Cl)cc1Cl [bosutinib, 4-[(2,4-dichloro-5-methoxyphenyl)amino]-6-methoxy-7-[3-(4-methylpiperazin-1-yl)propoxy]quinoline-3-carbonitrile]
- activation of dCK (substrate phosphorylation) [1]: most active compounds; also recorded: activate dCK

SMILES: Cc1[nH]c(/C=C2\C(=O)Nc3ccc(F)cc32)c(C)c1C(=O)NCCN1CCCC1 [toceranib, (Z)-5-[(5-Fluoro-2-oxo-1,2-dihydro-3H-indol-3-ylidene)methyl]-2,4-dimethyl-N-(2-pyrrolidin-1-ylethyl)-1H-pyrrole-3-carboxamide]
- activation of dCK (substrate phosphorylation) [1]: relatively little or no activity; also recorded: did not activate dCK

- activation of dCK (substrate phosphorylation) [1]: relatively little or no activity
SMILES: C#Cc1cccc(Nc2ncnc3cc(OCCOC)c(OCCOC)cc23)c1 [erlotinib, N-(3-ethynylphenyl)-6,7-bis(2-methoxyethoxy) quinazolin-4-amine]

SMILES: Cc1cc(Nc2cc(N3CCN(C)CC3)nc(Sc3ccc(NC(=O)C4CC4)cc3)n2)[nH]n1 [tozacertib]
- activation of dCK (substrate phosphorylation) [1]: most active compounds; also recorded: activate dCK

SMILES: CO[C@@H](C(=O)N1Cc2n[nH]c(NC(=O)c3ccc(N4CCN(C)CC4)cc3)c2C1)c1ccccc1 [danusertib]
- activation of dCK (substrate phosphorylation) [1]: most active compounds; also recorded: activate dCK

SMILES: CCN(CC)CCNC(=O)c1c(C)[nH]c(/C=C2\C(=O)Nc3ccc(F)cc32)c1C [sunitinib, N-(2-diethylaminoethyl)-5-[(Z)-(5-fluoro-2-oxo-1H-indol-3-ylidene)methyl]-2,4-dimethyl-1H-pyrrole-3-carboxamide]
- activation of dCK (substrate phosphorylation) [1]: relatively little or no activity; also recorded: did not activate dCK

SMILES: COc1cc(Nc2ncc(F)c(Nc3ccc4c(n3)N(COP(=O)(O)O)C(=O)C(C)(C)O4)n2)cc(OC)c1OC [fostamatinib, [6-({5-fluoro-2-[(3,4,5-trimethoxyphenyl)amino]pyrimidin-4-yl}amino)-2,2-dimethyl-3-oxo-2,3-dihydro-4H-pyrido[3,2-b][1,4]oxazin-4-yl]methyl dihydrogen phosphate]
- activation of dCK (substrate phosphorylation) [1]: relatively little or no activity; also recorded: did not activate dCK

SMILES: Cc1ccc(NC(=O)c2ccc(CN3CCN(C)CC3)cc2)cc1Nc1nccc(-c2cccnc2)n1 [imatinib, 4-[(4-methylpiperazin-1-yl)methyl]-N-[4-methyl-3-[(4-pyridin-3-ylpyrimidin-2-yl)amino]phenyl]benzamide]
- response to gemcitabine after pre-incubation with TKI [2]: did not result in an increased response

SMILES: Cc1cn(-c2cc(NC(=O)c3ccc(C)c(Nc4nccc(-c5cccnc5)n4)c3)cc(C(F)(F)F)c2)cn1 [nilotinib, 4-methyl-N-[3-(4-methyl-1H-imidazol-1-yl)-5-(trifluoromethyl)phenyl]-3-[(4-pyridin-3-ylpyrimidin-2-yl)amino]benzamide]
- activation of dCK (substrate phosphorylation) [1]: relatively little or no activity; also recorded: did not activate dCK

SMILES: Cc1ccc(NC(=O)c2ccc(CN3CCN(C)CC3)cc2)cc1Nc1nc(-c2cccnc2)cs1 [Masitinib, 4-(4-methylpiperazin-1-ylmethyl)-N-[4-methyl-3-(4-pyridin-3ylthiazol-2-ylamino)phenyl]benzamide]
- Sensitization factor (maximum) (C2 mastocytoma cells; C2, gemcitabine with masitinib 0.001 μM): 1
- IC50 (C2 mastocytoma cells; [13]): 0.03 µM
- synergy of masitinib with gemcitabine ([3]; BxPC-3, gemcitabine-sensitive): no synergy
- IC50 ([3]; Homo sapiens, BxPC-3, 72 hours, 1% FCS, read-out: IC50, single agent): 5 to 10 µM
- Sensitization factor (maximum) ([4]; Abrams, gemcitabine with masitinib 5 μM): 18
- IC50 [4, 13]: > 10 µM
- IC50 [5]: 0.3 ± 0.005 µM
- Sensitization factor (maximum) ([6]; CMT12, gemcitabine with masitinib 10 μM): >10
- IC50 [6, 14]: 8 µM
- IC50 ([7]; Homo sapiens, 72 hours, 1% FCS, read-out: IC50, single agent): 5 to 10 µM
- reduction in gemcitabine IC50 ([7]; masitinib pre-treatment (10 μM)): 10 fold
- IC50 ([2]; Homo sapiens, Mia Paca-2, 72 hours, 1% FCS, read-out: IC50, single agent): 5 to 10 µM
- response to gemcitabine after pre-incubation with TKI [2]: able to restore sensitivity to gemcitabine
- reduction in gemcitabine IC50 ([2]; Mia Paca-2, pre-treated with 5 and 10 μM masitinib (10 μM)): > 400 fold and 400 fold
- IC50 [8]: 0.15 ± 0.08 µM
- IC50 [9]: 5 to 20 µM
- Tumor Volume, Median [10]: 865 mm^3
- Sensitization factor (maximum) ([11]; CMT27, gemcitabine with masitinib 10 μM): >75
- IC50 [11, 14]: 8 µM
- synergy of masitinib with gemcitabine ([12]; Capan-2, gemcitabine-sensitive): no synergy
- IC50 ([12]; Homo sapiens, Capan-2, 72 hours, 1% FCS, read-out: IC50, single agent): 5 to 10 µM
- IC50 (D17 osteosarcoma cells; [13]): > 10 µM
- Sensitization factor (maximum) (D17 osteosarcoma cells; D17, gemcitabine with masitinib 5 μM): 70

SMILES: Cc1nc(Nc2ncc(C(=O)Nc3c(C)cccc3Cl)s2)cc(N2CCN(CCO)CC2)n1.O [dasatinib, N-(2-chloro-6-methylphenyl)-2-[[6-[4-(2-hydroxyethyl)-1-piperazinyl]-2-methyl-4-pyrimidinyl]amino]-5-thiazole carboxamide monohydrate]
- response to gemcitabine after pre-incubation with TKI [2]: did not result in an increased response
- cell proliferation with TKI alone ([2]; Mia Paca-2, imatinib 10 μM, dasatinib >0.1 μM): partially inhibited

SMILES: CNC(=O)c1cc(Oc2ccc(NC(=O)Nc3ccc(Cl)c(C(F)(F)F)c3)cc2)ccn1 [sorafenib, 4-[4-[[4-chloro-3-(trifluoromethyl)phenyl]carbamoylamino]phenoxy]-N-methyl-pyridine-2-carboxamide]
- activation of dCK (substrate phosphorylation) [1]: relatively little or no activity; also recorded: did not activate dCK
